# Reference: paper PMC8799717, “Pharmacological targeting PIKfyve and tubulin as an effective treatment strategy for double-hit lymphoma” (Cell Death Discovery, 2022)
# How the values were obtained:
# [1] = target: PHKG2 (Homo sapiens, UniProt P15735); test: biochemical; parameters: KINOMEscan active-site-directed competition binding panel, 468 kinases, percent of DMSO control at 1 uM; settings: KINOMEscan binding, percent of DMSO control; read-out: Ctrl%
# [2] = target: CSF1R (Homo sapiens, UniProt P07333); test: biochemical; parameters: KINOMEscan active-site-directed competition binding panel, 468 kinases, percent of DMSO control at 1 uM; settings: KINOMEscan binding, percent of DMSO control; read-out: Ctrl%
# [3] = target: T1, RPS6KA5(Kin.Dom.1-N-terminal) (Homo sapiens, UniProt O75582); test: biochemical; parameters: KINOMEscan active-site-directed competition binding panel, 468 kinases, percent of DMSO control at 1 uM; settings: KINOMEscan binding, percent of DMSO control; read-out: Ctrl%
# T1 construct: Kin.Dom.1-N-terminal
# [4] = target: ANKK1 (Homo sapiens, UniProt Q8NFD2); test: biochemical; parameters: KINOMEscan active-site-directed competition binding panel, 468 kinases, percent of DMSO control at 1 uM; settings: KINOMEscan binding, percent of DMSO control; read-out: Ctrl%
# [5] = target: BMPR2 (Homo sapiens, UniProt Q13873); test: biochemical; parameters: KINOMEscan active-site-directed competition binding panel, 468 kinases, percent of DMSO control at 1 uM; settings: KINOMEscan binding, percent of DMSO control; read-out: Ctrl%
# [6] = target: RET(M918T) (Homo sapiens, UniProt P07949, M918T); test: biochemical; parameters: KINOMEscan active-site-directed competition binding panel, 468 kinases, percent of DMSO control at 1 uM; settings: KINOMEscan binding, percent of DMSO control; read-out: Ctrl%
# [7] = target: CAMK4 (Homo sapiens, UniProt Q16566); test: biochemical; parameters: KINOMEscan active-site-directed competition binding panel, 468 kinases, percent of DMSO control at 1 uM; settings: KINOMEscan binding, percent of DMSO control; read-out: Ctrl%
# [8] = target: TLK2 (Homo sapiens, UniProt Q86UE8); test: biochemical; parameters: KINOMEscan active-site-directed competition binding panel, 468 kinases, percent of DMSO control at 1 uM; settings: KINOMEscan binding, percent of DMSO control; read-out: Ctrl%
# [9] = target: T2, PFTK1 (Homo sapiens, UniProt O94921); test: biochemical; parameters: KINOMEscan active-site-directed competition binding panel, 468 kinases, percent of DMSO control at 1 uM; settings: KINOMEscan binding, percent of DMSO control; read-out: Ctrl%
# T2 construct: gene CDK14
# [10] = target: PLK2 (Homo sapiens, UniProt Q9NYY3); test: biochemical; parameters: KINOMEscan active-site-directed competition binding panel, 468 kinases, percent of DMSO control at 1 uM; settings: KINOMEscan binding, percent of DMSO control; read-out: Ctrl%
# [11] = target: CSK (Homo sapiens, UniProt P41240); test: biochemical; parameters: KINOMEscan active-site-directed competition binding panel, 468 kinases, percent of DMSO control at 1 uM; settings: KINOMEscan binding, percent of DMSO control; read-out: Ctrl%
# [12] = target: T3, RIPK5 (Homo sapiens, UniProt Q6XUX3); test: biochemical; parameters: KINOMEscan active-site-directed competition binding panel, 468 kinases, percent of DMSO control at 1 uM; settings: KINOMEscan binding, percent of DMSO control; read-out: Ctrl%
# T3 construct: gene DSTYK
# [13] = target: NEK4 (Homo sapiens, UniProt P51957); test: biochemical; parameters: KINOMEscan active-site-directed competition binding panel, 468 kinases, percent of DMSO control at 1 uM; settings: KINOMEscan binding, percent of DMSO control; read-out: Ctrl%
# [14] = target: ABL2 (Homo sapiens, UniProt P42684); test: biochemical; parameters: KINOMEscan active-site-directed competition binding panel, 468 kinases, percent of DMSO control at 1 uM; settings: KINOMEscan binding, percent of DMSO control; read-out: Ctrl%
# [15] = target: HCK (Homo sapiens, UniProt P08631); test: biochemical; parameters: KINOMEscan active-site-directed competition binding panel, 468 kinases, percent of DMSO control at 1 uM; settings: KINOMEscan binding, percent of DMSO control; read-out: Ctrl%
# [16] = target: T4, PCTK1 (Homo sapiens, UniProt Q00536); test: biochemical; parameters: KINOMEscan active-site-directed competition binding panel, 468 kinases, percent of DMSO control at 1 uM; settings: KINOMEscan binding, percent of DMSO control; read-out: Ctrl%
# T4 construct: gene CDK16
# [17] = target: T5, RSK2(Kin.Dom.1-N-terminal) (Homo sapiens, UniProt P51812); test: biochemical; parameters: KINOMEscan active-site-directed competition binding panel, 468 kinases, percent of DMSO control at 1 uM; settings: KINOMEscan binding, percent of DMSO control; read-out: Ctrl%
# T5 construct: gene RPS6KA3; Kin.Dom.1-N-terminal
# [18] = target: T6, ABL1(Q252H)-phosphorylated (Homo sapiens, UniProt P00519, Q252H); test: biochemical; parameters: KINOMEscan active-site-directed competition binding panel, 468 kinases, percent of DMSO control at 1 uM; settings: KINOMEscan binding, percent of DMSO control; read-out: Ctrl%
# T6 construct: phosphorylated
# [19] = target: DDR2 (Homo sapiens, UniProt Q16832); test: KINOMEscan competition binding, single dose […]; settings: read-out: % of control at 1 μM
# [20] = target: KIT (Homo sapiens, UniProt P10721); test: KINOMEscan competition binding, single dose […]; settings: read-out: % of control at 1 μM
# [21] = target: DDR1 (Homo sapiens, UniProt Q08345); test: KINOMEscan competition binding, single dose […]; settings: read-out: % of control at 1 μM
# [22] = target: LCK (Homo sapiens, UniProt P06239); test: KINOMEscan competition binding, single dose […]; settings: read-out: % of control at 1 μM
# [23] = target: EPHA8 (Homo sapiens, UniProt P29322); test: KINOMEscan competition binding, single dose […]; settings: read-out: % of control at 1 μM
# [24] = target: STK33 (Homo sapiens, UniProt Q9BYT3); test: biochemical; parameters: KINOMEscan active-site-directed competition binding panel, 468 kinases, percent of DMSO control at 1 uM; settings: KINOMEscan binding, percent of DMSO control; read-out: Ctrl%
# [25] = target: LTK (Homo sapiens, UniProt P29376); test: biochemical; parameters: KINOMEscan active-site-directed competition binding panel, 468 kinases, percent of DMSO control at 1 uM; settings: KINOMEscan binding, percent of DMSO control; read-out: Ctrl%
# [26] = target: DYRK1B (Homo sapiens, UniProt Q9Y463); test: biochemical; parameters: KINOMEscan active-site-directed competition binding panel, 468 kinases, percent of DMSO control at 1 uM; settings: KINOMEscan binding, percent of DMSO control; read-out: Ctrl%
# PHKG2, sequence (P15735 whole entry): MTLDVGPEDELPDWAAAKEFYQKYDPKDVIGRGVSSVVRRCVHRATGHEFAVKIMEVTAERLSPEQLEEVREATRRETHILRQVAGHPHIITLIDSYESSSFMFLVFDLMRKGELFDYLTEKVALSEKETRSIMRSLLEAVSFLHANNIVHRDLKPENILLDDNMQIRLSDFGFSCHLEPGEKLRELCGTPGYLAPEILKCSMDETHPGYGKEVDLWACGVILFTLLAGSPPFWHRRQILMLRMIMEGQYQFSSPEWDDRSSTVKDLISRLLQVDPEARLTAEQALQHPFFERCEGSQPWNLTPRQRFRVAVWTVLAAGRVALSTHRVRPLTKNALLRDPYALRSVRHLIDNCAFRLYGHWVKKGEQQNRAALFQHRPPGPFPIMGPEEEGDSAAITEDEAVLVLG
# ABL2, sequence (P42684 whole entry): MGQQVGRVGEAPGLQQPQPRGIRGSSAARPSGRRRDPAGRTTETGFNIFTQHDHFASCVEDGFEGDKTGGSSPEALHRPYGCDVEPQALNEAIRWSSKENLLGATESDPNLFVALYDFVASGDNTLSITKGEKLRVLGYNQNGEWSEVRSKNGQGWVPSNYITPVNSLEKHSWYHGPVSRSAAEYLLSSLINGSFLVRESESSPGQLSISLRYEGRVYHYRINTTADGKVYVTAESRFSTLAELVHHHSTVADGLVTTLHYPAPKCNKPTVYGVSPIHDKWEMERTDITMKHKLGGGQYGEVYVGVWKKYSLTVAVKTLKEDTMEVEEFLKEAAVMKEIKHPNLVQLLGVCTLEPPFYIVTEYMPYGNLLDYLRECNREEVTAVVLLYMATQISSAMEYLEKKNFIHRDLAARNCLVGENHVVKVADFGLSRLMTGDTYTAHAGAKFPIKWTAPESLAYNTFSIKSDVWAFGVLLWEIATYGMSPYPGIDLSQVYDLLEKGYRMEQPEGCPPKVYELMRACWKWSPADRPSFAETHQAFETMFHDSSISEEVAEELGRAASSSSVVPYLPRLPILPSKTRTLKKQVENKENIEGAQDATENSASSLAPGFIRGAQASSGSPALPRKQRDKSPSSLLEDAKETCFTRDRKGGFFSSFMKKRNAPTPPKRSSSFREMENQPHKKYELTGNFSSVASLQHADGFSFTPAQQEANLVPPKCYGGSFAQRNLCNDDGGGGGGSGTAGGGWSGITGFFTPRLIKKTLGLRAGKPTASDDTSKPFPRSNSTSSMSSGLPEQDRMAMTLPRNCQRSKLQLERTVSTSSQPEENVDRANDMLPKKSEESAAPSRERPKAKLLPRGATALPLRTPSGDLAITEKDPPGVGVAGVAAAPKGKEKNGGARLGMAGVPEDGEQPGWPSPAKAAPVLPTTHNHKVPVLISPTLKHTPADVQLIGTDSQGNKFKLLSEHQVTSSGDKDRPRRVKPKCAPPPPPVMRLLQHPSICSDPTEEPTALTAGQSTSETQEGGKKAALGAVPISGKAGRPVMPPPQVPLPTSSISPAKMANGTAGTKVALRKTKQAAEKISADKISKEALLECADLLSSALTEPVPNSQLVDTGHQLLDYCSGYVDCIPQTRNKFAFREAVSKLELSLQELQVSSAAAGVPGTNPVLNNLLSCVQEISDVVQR
# LTK, sequence (P29376 whole entry): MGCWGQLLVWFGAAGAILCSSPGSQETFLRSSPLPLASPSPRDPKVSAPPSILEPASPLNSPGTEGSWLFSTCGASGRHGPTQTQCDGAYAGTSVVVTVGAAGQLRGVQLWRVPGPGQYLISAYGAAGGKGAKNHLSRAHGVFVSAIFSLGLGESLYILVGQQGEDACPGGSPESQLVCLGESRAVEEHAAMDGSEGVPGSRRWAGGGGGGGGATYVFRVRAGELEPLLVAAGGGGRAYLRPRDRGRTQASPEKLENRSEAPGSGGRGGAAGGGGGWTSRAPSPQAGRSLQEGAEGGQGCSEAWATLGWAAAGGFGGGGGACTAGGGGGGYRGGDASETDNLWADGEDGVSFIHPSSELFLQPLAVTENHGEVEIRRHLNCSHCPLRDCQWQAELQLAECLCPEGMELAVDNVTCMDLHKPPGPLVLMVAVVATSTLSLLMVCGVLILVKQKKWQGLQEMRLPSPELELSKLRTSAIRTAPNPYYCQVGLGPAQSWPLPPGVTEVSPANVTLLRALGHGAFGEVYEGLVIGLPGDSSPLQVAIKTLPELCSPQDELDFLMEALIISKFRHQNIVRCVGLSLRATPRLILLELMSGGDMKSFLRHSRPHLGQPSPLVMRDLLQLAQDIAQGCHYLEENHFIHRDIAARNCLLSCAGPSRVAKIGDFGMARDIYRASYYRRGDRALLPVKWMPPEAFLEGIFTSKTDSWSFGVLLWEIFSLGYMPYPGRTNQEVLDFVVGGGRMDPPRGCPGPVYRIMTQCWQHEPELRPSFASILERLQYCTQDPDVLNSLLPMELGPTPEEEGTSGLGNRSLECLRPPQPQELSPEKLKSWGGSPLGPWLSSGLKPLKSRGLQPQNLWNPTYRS
# HCK, sequence (P08631 whole entry): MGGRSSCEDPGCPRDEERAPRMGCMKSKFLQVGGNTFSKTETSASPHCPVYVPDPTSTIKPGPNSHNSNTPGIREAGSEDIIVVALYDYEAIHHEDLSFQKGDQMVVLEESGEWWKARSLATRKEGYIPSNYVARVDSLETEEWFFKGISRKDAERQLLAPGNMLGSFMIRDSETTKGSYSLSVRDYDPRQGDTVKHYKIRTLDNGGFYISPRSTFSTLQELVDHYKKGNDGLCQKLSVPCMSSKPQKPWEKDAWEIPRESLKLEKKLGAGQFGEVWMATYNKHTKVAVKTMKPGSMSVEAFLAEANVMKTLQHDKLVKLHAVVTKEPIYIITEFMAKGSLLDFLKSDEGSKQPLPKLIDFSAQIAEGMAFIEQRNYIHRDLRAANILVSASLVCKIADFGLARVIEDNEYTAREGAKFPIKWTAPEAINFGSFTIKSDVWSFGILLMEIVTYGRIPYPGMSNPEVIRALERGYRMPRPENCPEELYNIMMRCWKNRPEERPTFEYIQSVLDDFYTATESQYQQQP
# NEK4, sequence (P51957 whole entry): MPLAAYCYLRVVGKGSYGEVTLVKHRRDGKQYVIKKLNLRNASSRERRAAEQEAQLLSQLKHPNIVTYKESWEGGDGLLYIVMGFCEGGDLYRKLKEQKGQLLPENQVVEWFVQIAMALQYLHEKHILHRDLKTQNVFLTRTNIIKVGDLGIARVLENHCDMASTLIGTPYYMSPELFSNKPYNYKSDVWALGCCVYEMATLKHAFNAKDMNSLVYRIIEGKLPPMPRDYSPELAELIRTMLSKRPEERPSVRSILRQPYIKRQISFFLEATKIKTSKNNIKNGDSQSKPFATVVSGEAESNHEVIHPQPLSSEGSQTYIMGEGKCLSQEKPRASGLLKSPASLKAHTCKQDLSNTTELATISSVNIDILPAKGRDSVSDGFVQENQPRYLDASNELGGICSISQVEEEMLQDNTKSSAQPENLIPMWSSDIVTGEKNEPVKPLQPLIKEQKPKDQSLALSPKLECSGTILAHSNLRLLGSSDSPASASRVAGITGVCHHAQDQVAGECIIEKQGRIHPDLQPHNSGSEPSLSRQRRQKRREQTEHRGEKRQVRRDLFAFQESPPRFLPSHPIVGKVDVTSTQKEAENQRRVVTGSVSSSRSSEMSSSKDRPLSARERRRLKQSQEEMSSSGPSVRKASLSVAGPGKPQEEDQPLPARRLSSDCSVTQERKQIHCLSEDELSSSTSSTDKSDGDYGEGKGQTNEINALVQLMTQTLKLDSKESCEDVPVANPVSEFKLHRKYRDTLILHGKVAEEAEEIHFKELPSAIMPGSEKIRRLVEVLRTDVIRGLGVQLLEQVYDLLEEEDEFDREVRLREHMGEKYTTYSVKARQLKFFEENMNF
# TLK2, sequence (Q86UE8 whole entry): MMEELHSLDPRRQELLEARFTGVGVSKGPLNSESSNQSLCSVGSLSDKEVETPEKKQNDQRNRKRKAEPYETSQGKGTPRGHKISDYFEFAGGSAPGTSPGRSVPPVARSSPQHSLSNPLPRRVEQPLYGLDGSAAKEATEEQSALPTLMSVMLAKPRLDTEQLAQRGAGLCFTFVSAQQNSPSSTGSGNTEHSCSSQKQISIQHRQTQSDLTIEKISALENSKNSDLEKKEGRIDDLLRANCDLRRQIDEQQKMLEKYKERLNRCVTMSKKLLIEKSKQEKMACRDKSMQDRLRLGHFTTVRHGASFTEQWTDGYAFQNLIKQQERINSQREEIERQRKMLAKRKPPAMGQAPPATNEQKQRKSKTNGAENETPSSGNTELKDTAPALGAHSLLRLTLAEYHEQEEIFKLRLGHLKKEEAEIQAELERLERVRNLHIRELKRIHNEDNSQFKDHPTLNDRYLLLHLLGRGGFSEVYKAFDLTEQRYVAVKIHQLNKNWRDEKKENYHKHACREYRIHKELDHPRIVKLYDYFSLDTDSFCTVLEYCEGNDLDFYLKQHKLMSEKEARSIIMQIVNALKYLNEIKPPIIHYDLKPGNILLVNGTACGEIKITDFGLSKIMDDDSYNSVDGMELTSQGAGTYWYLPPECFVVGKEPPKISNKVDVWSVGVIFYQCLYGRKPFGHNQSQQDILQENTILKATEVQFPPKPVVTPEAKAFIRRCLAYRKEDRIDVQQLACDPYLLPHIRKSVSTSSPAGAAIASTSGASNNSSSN
# CSK, sequence (P41240 whole entry): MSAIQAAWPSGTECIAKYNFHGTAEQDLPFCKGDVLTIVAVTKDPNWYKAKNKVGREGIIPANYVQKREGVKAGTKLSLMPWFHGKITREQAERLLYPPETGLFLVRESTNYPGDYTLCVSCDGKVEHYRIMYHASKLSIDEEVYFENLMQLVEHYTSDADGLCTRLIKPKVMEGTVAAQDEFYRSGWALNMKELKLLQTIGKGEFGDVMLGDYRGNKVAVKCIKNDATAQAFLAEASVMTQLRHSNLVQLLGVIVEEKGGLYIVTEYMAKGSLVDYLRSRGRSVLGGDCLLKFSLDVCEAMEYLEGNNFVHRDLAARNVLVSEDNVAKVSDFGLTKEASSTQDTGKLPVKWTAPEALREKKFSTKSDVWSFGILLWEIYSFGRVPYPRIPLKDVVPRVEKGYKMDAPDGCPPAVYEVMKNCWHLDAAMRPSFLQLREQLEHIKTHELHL
smiles,measurement,setting,value
Cc1ccc(NC(=O)c2cccc(C(F)(F)F)c2)cc1Nc1cc(-c2cccnc2)nc2[nH]ccc12 [HZX-02-059],remaining binding at 1 µM,[1],92%
same,remaining binding at 1 µM,[2],6.1%
same,remaining binding at 1 µM,[3],94%
same,remaining binding at 1 µM,[4],99%
same,remaining binding at 1 µM,[5],100%
same,remaining binding at 1 µM,[6],99%
same,remaining binding at 1 µM,[7],83%
same,remaining binding at 1 µM,[8],89%
same,remaining binding at 1 µM,[9],98%
same,remaining binding at 1 µM,[10],99%
same,remaining binding at 1 µM,[11],91%
same,remaining binding at 1 µM,[12],100%
same,remaining binding at 1 µM,[13],86%
same,remaining binding at 1 µM,[14],26%
same,remaining binding at 1 µM,[15],84%
same,remaining binding at 1 µM,[16],100%
same,remaining binding at 1 µM,[17],78%
same,remaining binding at 1 µM,[18],61%
same,remaining binding at 1 µM,[19],0%
same,remaining binding at 1 µM,[20],1.2%
same,remaining binding at 1 µM,[21],0.75%
same,remaining binding at 1 µM,[22],0.9%
same,remaining binding at 1 µM,[23],0.5%
same,remaining binding at 1 µM,[24],94%
same,remaining binding at 1 µM,[25],79%
same,remaining binding at 1 µM,[26],97%
